{"source": "patent US8598339B2", "about": "“Withanolide isolated from Physalis longifolia and analogs and methods of use thereof” (University of Kansas, priority 2011, dated 2013)", "key": {"[1]": {"test": "In vitro metabolism, rat liver microsomes", "type": "in vitro ADME, rat (Sprague-Dawley)", "conditions": "1.0E-06 M", "protocol": "(§1) The in vitro metabolism of […], as compared to known reference compounds, was analyzed using liver microsomes from human, dog (Beagle), rat (Sprague-Dawley) and mouse (CD-1). […] Results are from two independent tests."}, "[2]": {"test": "In vitro metabolism, mouse liver microsomes", "type": "in vitro ADME, mouse (CD-1)", "conditions": "1.0E-06 M", "protocol": "as §1"}, "[3]": {"system": "Salmonella typhimurium TA98", "test": "Cytotoxicity in tester strain TA98 without S9", "type": "cell-based"}, "[4]": {"system": "Salmonella typhimurium TA1535", "test": "Cytotoxicity in tester strain TA1535 without S9", "type": "cell-based"}, "[5]": {"system": "MDA-MB-231", "test": "MTS assay, MDA-MB-231", "type": "cell-based", "protocol": "(§2) Cell proliferation was analyzed using MTS assay."}, "[6]": {"system": "MDA-MB-468", "test": "MTS assay, MDA-MB-468", "type": "cell-based", "protocol": "as §2"}, "[7]": {"system": "MRC5", "test": "MTS assay, MRC5", "type": "cell-based", "conditions": "MRC5 (normal)", "protocol": "as §2"}, "[8]": {"system": "MDA-MB-231 cells", "test": "Clonogenic assay, MDA-MB-231", "type": "cell-based", "conditions": "1-2 μM; treated 24 hours, cultured two weeks"}, "[9]": {"system": "ER+ MCF-7 cells", "test": "Cell cycle analysis, MCF-7", "type": "cell-based", "conditions": "1-2 μM; 24-hour treatment"}, "[10]": {"system": "MDA-MB-231 cells", "test": "Annexin V-FITC/Propidium Iodide apoptosis, MDA-MB-231", "type": "cell-based", "text": "Therefore, this cell line was not very sensitive to X001 in this assay."}, "[11]": {"system": "Ames test strain TA98", "test": "Ames test, TA98"}, "[12]": {"system": "Ames test strain TA1535", "test": "Ames test, TA1535"}, "[13]": {"system": "NCI-H727 cells", "test": "PARP cleavage and caspase 3 activation, NCI-H727", "type": "cell-based", "conditions": "1 μM", "protocol": "In similar analysis with X003, 50% of UMSCC-2 HNSCC cells underwent apoptosis (early and late) at 1 μM, while 90% of cells underwent apoptosis at 3 μM. Apoptosis with 1 μM X003 was confirmed with PARP cleavage and caspase 3 activation in NCI-H727 cells."}}, "data": [{"compound": "CC1=C(CO)C(=O)O[C@@H]([C@@H](C)C2CC[C@H]3[C@@H]4C[C@H]5O[C@]56[C@@H](O)C=CC(=O)[C@]6(CO)[C@H]4CC[C@]23C)C1", "note": "(some centres unmarked) [Compound X001]", "values": [{"measurement": "Mean % Parent Compound Remaining", "setting": "[1]", "result": 31, "unit": "%"}, {"measurement": "Mean % Parent Compound Remaining", "setting": "[2]", "result": 29, "unit": "%"}, {"measurement": "Cytotoxicity (% of Control)", "setting": "[3]; 1.0E−04 M", "result": "98 % of Control"}, {"measurement": "Cytotoxicity (% of Control)", "setting": "[3]; 1.0E−05 M", "result": "86 % of Control"}, {"measurement": "Cytotoxicity (% of Control)", "setting": "[3]; 1.3E−06 M", "result": "89 % of Control"}, {"measurement": "Cytotoxicity (% of Control)", "setting": "[3]; 2.5E−05 M", "result": "86 % of Control"}, {"measurement": "Cytotoxicity (% of Control)", "setting": "[3]; 2.5E−06 M", "result": "87 % of Control"}, {"measurement": "Cytotoxicity (% of Control)", "setting": "[3]; 5.0E−05 M", "result": "85 % of Control"}, {"measurement": "Cytotoxicity (% of Control)", "setting": "[3]; 5.0E−06 M", "result": "86 % of Control"}, {"measurement": "Cytotoxicity (% of Control)", "setting": "[3]; 6.3E−07 M", "result": "95 % of Control"}, {"measurement": "Cytotoxicity (% of Control)", "setting": "[4]; 1.0E−04 M", "result": "111 % of Control"}, {"measurement": "Cytotoxicity (% of Control)", "setting": "[4]; 1.0E−05 M", "result": "97 % of Control"}, {"measurement": "Cytotoxicity (% of Control)", "setting": "[4]; 1.3E−06 M", "result": "99 % of Control"}, {"measurement": "Cytotoxicity (% of Control)", "setting": "[4]; 2.5E−05 M", "result": "100 % of Control"}, {"measurement": "Cytotoxicity (% of Control)", "setting": "[4]; 2.5E−06 M", "result": "97 % of Control"}, {"measurement": "Cytotoxicity (% of Control)", "setting": "[4]; 5.0E−05 M", "result": "109 % of Control"}, {"measurement": "Cytotoxicity (% of Control)", "setting": "[4]; 5.0E−06 M", "result": "98 % of Control"}, {"measurement": "Cytotoxicity (% of Control)", "setting": "[4]; 6.3E−07 M", "result": "99 % of Control"}, {"measurement": "Log ECF", "setting": "[5]", "result": 1.25}, {"measurement": "Log ECF", "setting": "[6]", "result": 0.32}, {"measurement": "Log ECF", "setting": "[7]", "result": 4.59}, {"measurement": "colony formation", "setting": "[8]", "result": "strongly inhibited"}, {"measurement": "cell cycle effect", "setting": "[9]", "result": "G2/M cell cycle arrest"}, {"measurement": "concentration needed to induce apoptosis", "setting": "[10]", "result": "at least 4 μM"}, {"measurement": "Positive Significance (− to +++)", "setting": "[11]; 1.0E−04 M, TA98 +S9", "result": "−"}, {"measurement": "Positive Significance (− to +++)", "setting": "[11]; 1.0E−04 M, TA98 −S9", "result": "−"}, {"measurement": "Positive Significance (− to +++)", "setting": "[11]; 1.0E−05 M, TA98 +S9", "result": "−"}, {"measurement": "Positive Significance (− to +++)", "setting": "[11]; 1.0E−05 M, TA98 −S9", "result": "−"}, {"measurement": "Positive Significance (− to +++)", "setting": "[11]; 5.0E−05 M, TA98 +S9", "result": "−"}, {"measurement": "Positive Significance (− to +++)", "setting": "[11]; 5.0E−05 M, TA98 −S9", "result": "−"}, {"measurement": "Positive Significance (− to +++)", "setting": "[11]; 5.0E−06 M, TA98 +S9", "result": "−"}, {"measurement": "Positive Significance (− to +++)", "setting": "[11]; 5.0E−06 M, TA98 −S9", "result": "−"}, {"measurement": "Positive Significance (− to +++)", "setting": "[12]; 1.0E−04 M, TA1535 +S9", "result": "−"}, {"measurement": "Positive Significance (− to +++)", "setting": "[12]; 1.0E−04 M, TA1535 −S9", "result": "−"}, {"measurement": "Positive Significance (− to +++)", "setting": "[12]; 1.0E−05 M, TA1535 +S9", "result": "−"}, {"measurement": "Positive Significance (− to +++)", "setting": "[12]; 1.0E−05 M, TA1535 −S9", "result": "−"}, {"measurement": "Positive Significance (− to +++)", "setting": "[12]; 5.0E−05 M, TA1535 +S9", "result": "−"}, {"measurement": "Positive Significance (− to +++)", "setting": "[12]; 5.0E−05 M, TA1535 −S9", "result": "−"}, {"measurement": "Positive Significance (− to +++)", "setting": "[12]; 5.0E−06 M, TA1535 +S9", "result": "−"}, {"measurement": "Positive Significance (− to +++)", "setting": "[12]; 5.0E−06 M, TA1535 −S9", "result": "−"}]}, {"compound": "CC(=O)OCC1=C(C)C[C@H]([C@@H](C)C2CC[C@H]3[C@@H]4C[C@H]5O[C@]56[C@@H](OC(C)=O)C=CC(=O)[C@]6(COC(C)=O)[C@H]4CC[C@]23C)OC1=O", "note": "(some centres unmarked) [Compound X003, 4,19,27-triacetyl X001]", "values": [{"measurement": "apoptosis by PARP cleavage and caspase 3 activation", "setting": "[13]", "result": "confirmed"}]}]}
